What was measured:
MM.1S cells = assay: HLA class I ligand presentation upon carfilzomib treatment on MM.1S cells (LC-MS/MS); assay type: cell-based, human; set-up: key to modulation upon carfilzomib-treatment 24 #1 / modulation upon carfilzomib-treatment 24 #2 / modulation upon carfilzomib-treatment 24 #3 / modulation upon carfilzomib-treatment 48 #1 / modulation upon carfilzomib-treatment 48 #2 / modulation upon carfilzomib-treatment 48 #3: −1: significantly down-modulated; 0: not signifcant/not detected; 1: significantly up-modulated; settings: MM.1S cells; for modulation upon carfilzomib-treatment 24 #1 / modulation upon carfilzomib-treatment 24 #2 / modulation upon carfilzomib-treatment 24 #3: 24 h after carfilzomib treatment (100 nM, 1 h); for modulation upon carfilzomib-treatment 24 #1 / modulation upon carfilzomib-treatment 48 #1: biological replicate #1; for modulation upon carfilzomib-treatment 24 #1 / modulation upon carfilzomib-treatment 24 #2 / modulation upon carfilzomib-treatment 24 #3 / modulation upon carfilzomib-treatment 48 #1 / modulation upon carfilzomib-treatment 48 #2 / modulation upon carfilzomib-treatment 48 #3: vs mock-treated controls; for modulation upon carfilzomib-treatment 24 #2 / modulation upon carfilzomib-treatment 48 #2: biological replicate #2; for modulation upon carfilzomib-treatment 24 #3 / modulation upon carfilzomib-treatment 48 #3: biological replicate #3; for modulation upon carfilzomib-treatment 48 #1 / modulation upon carfilzomib-treatment 48 #2 / modulation upon carfilzomib-treatment 48 #3: 48 h after carfilzomib treatment (100 nM, 1 h)
Method: (§1) HLA class I and II molecules were isolated using standard immunoaffinity purification as described using the pan-HLA class I specific mAb W6/32, the pan-HLA class II specific mAb T039 and the HLA-DR specific mAB L243 (produced in house).
(§2) HLA ligand extracts were analyzed in 5 technical replicates as described previously. In brief, peptide samples were separated by nanoflow HPLC (RSLCnano, ThermoFisher) using a 50 μm×25 cm PepMap RSLC column (Thermo Fisher) and a gradient ranging from 2.4 to 32.0% acetonitrile over the course of 90 min. Eluting peptides were analyzed in an online coupled LTQ Orbitrap XL mass spectrometer (Thermo Fisher) using a top 5 CID (collision induced dissociation) fragmentation method.
(§3) Data processing was performed as described previously. In brief, the Mascot search engine (Mascot 2.2.04; Matrix Science, London, UK) was implemented to search the human proteome as comprised in the Swiss-Prot database (20,279 reviewed protein sequences, September 2013) without enzymatic restriction. Potential mutated HLA ligands were searched implementing a database containing the human proteome concatenated with proteins containing single amino acid variants (SAVs) listed in the COSMIC database (http://cancer.sanger.ac.uk/cosmic/). Only recurrent SAVs described in 2 or more samples of hematological origin were included. Oxidized methionine was allowed as a dynamic modification. The false discovery rate was estimated using the Percolator algorithm and set to 5%. Peptide lengths were limited to 8-12 amino acids for HLA class I and 12-25 amino acids for HLA class II. Protein inference was disabled, allowing for multiple protein annotations of peptides. HLA annotation was performed using SYFPEITHI [46] or an extended in-house database. Experimental validation of peptide identifications and HLA annotations was performed by mass spectrometric and functional characterization of synthetic peptides for a subset of peptides.
(§4) The inventors quantitatively assessed HLA class I ligand presentation during proteasome inhibitor therapy. Observed was a considerable plasticity of the HLA class I ligandome after treatment with carfilzomib with 17.9±1.1% of MM.1S ligands and 11.2±0.7% of U266 ligands (mean of three biological replicates ±s.d.) showing significant modulation (fold-change ≥4, Po0.01 after Benjamini-Hochberg correction) at t24 h compared with mock-treated controls. Briefly, Cultured MCLs (MM.1S and U266) and primary myeloma samples were incubated with carfilzomib (100 nM, Kyprolis®, available, e.g., from Onyx Pharmaceuticals, Inc.) as an example for a proteasome inhibitor for a 1-h period, followed by three washes in PBS (Gibco) and recultured for additional 24 or 48 h. Controls were incubated with vehicle control (glucose 5%) for 1 h, followed by identical washing and incubation for 24 or 48 h. Experiments were conducted in three biological replicates where indicated.

U266 cells = assay: HLA class I ligand presentation upon carfilzomib treatment on U266 cells (LC-MS/MS); assay type: cell-based, human; set-up: key to modulation upon carfilzomib-treatment 24 #1 / modulation upon carfilzomib-treatment 24 #2 / modulation upon carfilzomib-treatment 24 #3 / modulation upon carfilzomib-treatment 48 #1 / modulation upon carfilzomib-treatment 48 #2 / modulation upon carfilzomib-treatment 48 #3: −1: significantly down-modulated; 0: not signifcant/not detected; 1: significantly up-modulated; settings: U266 cells, vs mock-treated controls; for modulation upon carfilzomib-treatment 24 #1 / modulation upon carfilzomib-treatment 24 #2 / modulation upon carfilzomib-treatment 24 #3: 24 h after carfilzomib treatment (100 nM, 1 h); for modulation upon carfilzomib-treatment 24 #1 / modulation upon carfilzomib-treatment 48 #1: biological replicate #1; for modulation upon carfilzomib-treatment 24 #2 / modulation upon carfilzomib-treatment 48 #2: biological replicate #2; for modulation upon carfilzomib-treatment 24 #3 / modulation upon carfilzomib-treatment 48 #3: biological replicate #3; for modulation upon carfilzomib-treatment 48 #1 / modulation upon carfilzomib-treatment 48 #2 / modulation upon carfilzomib-treatment 48 #3: 48 h after carfilzomib treatment (100 nM, 1 h)
Method: as §1, §2, §3, §4

[1] = 24 h after carfilzomib treatment

AFIQAGIFQEF
−1: modulation upon carfilzomib-treatment 24 #1 (MM.1S cells) | modulation upon carfilzomib-treatment 24 #3 (MM.1S cells) | modulation upon carfilzomib-treatment 48 #3 (MM.1S cells)
0: modulation upon carfilzomib-treatment 24 #2 (MM.1S cells) | modulation upon carfilzomib-treatment 48 #1 (MM.1S cells) | modulation upon carfilzomib-treatment 48 #2 (MM.1S cells)

EYGHIPSF
0: modulation upon carfilzomib-treatment 24 #3 (MM.1S cells) | modulation upon carfilzomib-treatment 48 #1 (MM.1S cells) | modulation upon carfilzomib-treatment 48 #2 (MM.1S cells) | modulation upon carfilzomib-treatment 48 #3 (MM.1S cells)
1: modulation upon carfilzomib-treatment 24 #1 (MM.1S cells) | modulation upon carfilzomib-treatment 24 #2 (MM.1S cells)

EYGHIPSF (listed as Homo sapiens) [SEQ ID NO: 42]
significant up-modulation: modulation of peptide presentation upon carfilzomib treatment (MM.1S cells; [1])
2/3: biological replicates with significant up-modulation (MM.1S cells; [1])

FAQIISVALI
0: modulation upon carfilzomib-treatment 24 #1 (MM.1S cells) | modulation upon carfilzomib-treatment 24 #2 (MM.1S cells) | modulation upon carfilzomib-treatment 24 #3 (MM.1S cells) | modulation upon carfilzomib-treatment 48 #1 (MM.1S cells) | modulation upon carfilzomib-treatment 48 #2 (MM.1S cells) | modulation upon carfilzomib-treatment 48 #3 (MM.1S cells)

IEHPSMSVY
0: modulation upon carfilzomib-treatment 48 #1 (MM.1S cells)
1: modulation upon carfilzomib-treatment 24 #1 (MM.1S cells) | modulation upon carfilzomib-treatment 24 #2 (MM.1S cells) | modulation upon carfilzomib-treatment 24 #3 (MM.1S cells) | modulation upon carfilzomib-treatment 48 #2 (MM.1S cells) | modulation upon carfilzomib-treatment 48 #3 (MM.1S cells)

LAFPGEMLL
0: modulation upon carfilzomib-treatment 24 #1 (MM.1S cells) | modulation upon carfilzomib-treatment 24 #2 (MM.1S cells) | modulation upon carfilzomib-treatment 24 #3 (MM.1S cells) | modulation upon carfilzomib-treatment 48 #1 (MM.1S cells) | modulation upon carfilzomib-treatment 48 #2 (MM.1S cells) | modulation upon carfilzomib-treatment 48 #3 (MM.1S cells)

LAFPGEMLL (listed as Homo sapiens) [SEQ ID NO: 107]
no significant modulation: modulation of peptide presentation upon carfilzomib treatment (MM.1S cells; [1])

NEFPVFDEF
0: modulation upon carfilzomib-treatment 24 #1 (MM.1S cells) | modulation upon carfilzomib-treatment 24 #2 (MM.1S cells) | modulation upon carfilzomib-treatment 24 #3 (MM.1S cells) | modulation upon carfilzomib-treatment 48 #1 (MM.1S cells) | modulation upon carfilzomib-treatment 48 #2 (MM.1S cells) | modulation upon carfilzomib-treatment 48 #3 (MM.1S cells)

NEVIMTIGF
0: modulation upon carfilzomib-treatment 24 #1 (MM.1S cells) | modulation upon carfilzomib-treatment 24 #2 (MM.1S cells) | modulation upon carfilzomib-treatment 24 #3 (MM.1S cells) | modulation upon carfilzomib-treatment 48 #1 (MM.1S cells) | modulation upon carfilzomib-treatment 48 #3 (MM.1S cells)
1: modulation upon carfilzomib-treatment 48 #2 (MM.1S cells)

RPHGGKSL
0: modulation upon carfilzomib-treatment 24 #1 (MM.1S cells) | modulation upon carfilzomib-treatment 24 #2 (MM.1S cells) | modulation upon carfilzomib-treatment 24 #3 (MM.1S cells) | modulation upon carfilzomib-treatment 48 #1 (MM.1S cells) | modulation upon carfilzomib-treatment 48 #2 (MM.1S cells) | modulation upon carfilzomib-treatment 48 #3 (MM.1S cells)

RVAKTNSLR
0: modulation upon carfilzomib-treatment 24 #1 (U266 cells) | modulation upon carfilzomib-treatment 24 #2 (U266 cells) | modulation upon carfilzomib-treatment 24 #3 (U266 cells) | modulation upon carfilzomib-treatment 48 #1 (U266 cells) | modulation upon carfilzomib-treatment 48 #2 (U266 cells) | modulation upon carfilzomib-treatment 48 #3 (U266 cells)

RVFPYSVFY
−1: modulation upon carfilzomib-treatment 24 #1 (U266 cells) | modulation upon carfilzomib-treatment 48 #1 (U266 cells) | modulation upon carfilzomib-treatment 48 #2 (U266 cells) | modulation upon carfilzomib-treatment 48 #3 (U266 cells)
0: modulation upon carfilzomib-treatment 24 #2 (U266 cells) | modulation upon carfilzomib-treatment 24 #3 (U266 cells)

RVNKVIIGTK
0: modulation upon carfilzomib-treatment 24 #1 (U266 cells) | modulation upon carfilzomib-treatment 24 #2 (U266 cells) | modulation upon carfilzomib-treatment 24 #3 (U266 cells) | modulation upon carfilzomib-treatment 48 #1 (U266 cells) | modulation upon carfilzomib-treatment 48 #2 (U266 cells) | modulation upon carfilzomib-treatment 48 #3 (U266 cells)

RYFKGPELL
0: modulation upon carfilzomib-treatment 24 #1 (MM.1S cells) | modulation upon carfilzomib-treatment 24 #2 (MM.1S cells) | modulation upon carfilzomib-treatment 24 #3 (MM.1S cells) | modulation upon carfilzomib-treatment 48 #1 (MM.1S cells) | modulation upon carfilzomib-treatment 48 #2 (MM.1S cells) | modulation upon carfilzomib-treatment 48 #3 (MM.1S cells)

RYLDLFTSF
−1: modulation upon carfilzomib-treatment 24 #1 (MM.1S cells) | modulation upon carfilzomib-treatment 24 #2 (MM.1S cells) | modulation upon carfilzomib-treatment 24 #3 (MM.1S cells) | modulation upon carfilzomib-treatment 48 #2 (MM.1S cells) | modulation upon carfilzomib-treatment 48 #3 (MM.1S cells)
0: modulation upon carfilzomib-treatment 48 #1 (MM.1S cells)

RYSPVLSRF
0: modulation upon carfilzomib-treatment 24 #1 (MM.1S cells) | modulation upon carfilzomib-treatment 24 #2 (MM.1S cells) | modulation upon carfilzomib-treatment 24 #3 (MM.1S cells) | modulation upon carfilzomib-treatment 48 #1 (MM.1S cells) | modulation upon carfilzomib-treatment 48 #2 (MM.1S cells) | modulation upon carfilzomib-treatment 48 #3 (MM.1S cells)

RYSTQIHSF
0: modulation upon carfilzomib-treatment 24 #1 (MM.1S cells) | modulation upon carfilzomib-treatment 24 #2 (MM.1S cells) | modulation upon carfilzomib-treatment 24 #3 (MM.1S cells) | modulation upon carfilzomib-treatment 48 #1 (MM.1S cells) | modulation upon carfilzomib-treatment 48 #2 (MM.1S cells) | modulation upon carfilzomib-treatment 48 #3 (MM.1S cells)

SEFDFFERL
−1: modulation upon carfilzomib-treatment 48 #3 (MM.1S cells)
0: modulation upon carfilzomib-treatment 24 #1 (MM.1S cells) | modulation upon carfilzomib-treatment 24 #2 (MM.1S cells) | modulation upon carfilzomib-treatment 24 #3 (MM.1S cells) | modulation upon carfilzomib-treatment 48 #1 (MM.1S cells) | modulation upon carfilzomib-treatment 48 #2 (MM.1S cells)

SESLPVRTL
0: modulation upon carfilzomib-treatment 24 #1 (U266 cells) | modulation upon carfilzomib-treatment 24 #2 (U266 cells) | modulation upon carfilzomib-treatment 24 #3 (U266 cells) | modulation upon carfilzomib-treatment 48 #1 (U266 cells) | modulation upon carfilzomib-treatment 48 #2 (U266 cells) | modulation upon carfilzomib-treatment 48 #3 (U266 cells)

SPALKRLDL
0: modulation upon carfilzomib-treatment 24 #1 (U266 cells) | modulation upon carfilzomib-treatment 24 #2 (U266 cells) | modulation upon carfilzomib-treatment 24 #3 (U266 cells) | modulation upon carfilzomib-treatment 48 #1 (U266 cells) | modulation upon carfilzomib-treatment 48 #2 (U266 cells) | modulation upon carfilzomib-treatment 48 #3 (U266 cells)

SPALPGLKL
0: modulation upon carfilzomib-treatment 24 #1 (MM.1S cells) | modulation upon carfilzomib-treatment 24 #2 (MM.1S cells) | modulation upon carfilzomib-treatment 24 #3 (MM.1S cells) | modulation upon carfilzomib-treatment 48 #1 (MM.1S cells) | modulation upon carfilzomib-treatment 48 #2 (MM.1S cells) | modulation upon carfilzomib-treatment 48 #3 (MM.1S cells)

SPRLSLLYL
0: modulation upon carfilzomib-treatment 24 #1 (U266 cells) | modulation upon carfilzomib-treatment 24 #2 (U266 cells) | modulation upon carfilzomib-treatment 24 #3 (U266 cells) | modulation upon carfilzomib-treatment 48 #1 (U266 cells) | modulation upon carfilzomib-treatment 48 #2 (U266 cells) | modulation upon carfilzomib-treatment 48 #3 (U266 cells)

SPRQALTDF
0: modulation upon carfilzomib-treatment 24 #1 (U266 cells) | modulation upon carfilzomib-treatment 24 #2 (U266 cells) | modulation upon carfilzomib-treatment 24 #3 (U266 cells) | modulation upon carfilzomib-treatment 48 #1 (U266 cells) | modulation upon carfilzomib-treatment 48 #2 (U266 cells) | modulation upon carfilzomib-treatment 48 #3 (U266 cells)

SPYLRPLTL
0: modulation upon carfilzomib-treatment 24 #1 (U266 cells) | modulation upon carfilzomib-treatment 24 #2 (U266 cells) | modulation upon carfilzomib-treatment 24 #3 (U266 cells) | modulation upon carfilzomib-treatment 48 #1 (U266 cells) | modulation upon carfilzomib-treatment 48 #2 (U266 cells) | modulation upon carfilzomib-treatment 48 #3 (U266 cells)

SRGDFVVEY
−1: modulation upon carfilzomib-treatment 24 #2 (U266 cells) | modulation upon carfilzomib-treatment 48 #3 (U266 cells)
0: modulation upon carfilzomib-treatment 24 #1 (U266 cells) | modulation upon carfilzomib-treatment 24 #3 (U266 cells) | modulation upon carfilzomib-treatment 48 #1 (U266 cells) | modulation upon carfilzomib-treatment 48 #2 (U266 cells)

SVYSPVKKK
0: modulation upon carfilzomib-treatment 24 #1 (U266 cells) | modulation upon carfilzomib-treatment 24 #2 (U266 cells) | modulation upon carfilzomib-treatment 48 #1 (U266 cells) | modulation upon carfilzomib-treatment 48 #2 (U266 cells) | modulation upon carfilzomib-treatment 48 #3 (U266 cells)
−1: modulation upon carfilzomib-treatment 24 #3 (U266 cells)

YLYITKVLK
0: modulation upon carfilzomib-treatment 24 #1 (U266 cells) | modulation upon carfilzomib-treatment 24 #2 (U266 cells) | modulation upon carfilzomib-treatment 24 #3 (U266 cells) | modulation upon carfilzomib-treatment 48 #1 (U266 cells) | modulation upon carfilzomib-treatment 48 #2 (U266 cells) | modulation upon carfilzomib-treatment 48 #3 (U266 cells)

Reference: patent publication US10906938B2, “Cell epitopes and combination of cell epitopes for use in the immunotherapy of myeloma and other cancers” (Immatics Biotechnologies GmbH, priority 2015, dated 2021)
